From patent publication US10195185B2, “3-(1H-imidazo[4,5-C]pyridin-2-yl)-1H-pyrazolo[4,3-B]pyridines and therapeutic uses thereof” (Samumed, LLC, priority 2015, dated 2019) come the findings set out here.

Common to all, as to type: cell-based
Experiment [1] has as its system Wnt activity (Wnt-responsive human Sp5 promoter, TCF/LEF binding sites) in SW480 colon carcinoma cells. Briefly: Wnt activity screening assay: Sp5-Luc luciferase reporter gene in SW480 cells. Conditions: for EC50: 10-point dose-response from 10 μM, incubated overnight; for inhibition at 10 µM: given for EC50 of >10 μM, read-out: percent inhibition at 10 μM. The method, boiled down: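 First, hygromycin-selected SW480 Sp5-Luc reporter cells are seeded in medium with 1% fetal bovine serum and exposed overnight to compound (up to 10 μM, 0.1% DMSO). Next, luciferase signal is read by luminescence. Finally, EC50 is fitted, or percent inhibition at 10 μM is reported above 10 μM.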
On the technique in general: A reporter such as luciferase makes a cellular process visible.

For the next experiment, the system named is SW480 colon cancer cells. Put plainly: Cell viability assay (CellTiter-Blue), four days. To be noted: Homo sapiens, 96 h; for EC50: CellTiter-Blue cell viability; for inhibition at 10 µM: read-out: percent inhibition at 10 μM (given for EC50 of >10 μM). The gist of the method:
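Four-day viability readout in SW480 cells: compound at 0.0045–10 μM (1:3 series), DMSO controls in eight replicates, CellTiter-Blue fluorescence after ~3 h. Values are regression-derived EC50s, or percent inhibition at 10 μM when EC50 exceeds 10 μM.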

Experiment [2] deals with primary human mesenchymal stem cells (hMSCs). Put plainly: Induction of chondrogenesis in hMSCs (nodule area, Rhodamine B / Nile Red). Conditions: TGF-β3 as positive control; for Emax: read-out: Max. Activity as % TGF-β3 activity; for EC50: concentration required to induce 50% levels of chondrogenesis, read-out: Conc (nM) of 50% TGF-β3 activity. On the procedure:
Representative compounds were screened using primary human mesenchymal stem cells (hMSCs) to determine their ability to induce chondrogenesis (process by which cartilage is developed).
Primary human mesenchymal stem cells (hMSCs) were purchased from Lonza (Walkersville, Md.) and expanded in Mesenchymal Stem Cell Growth Media (Lonza). Cells between passage 3 and 6 were used for the experiments.
Each compound was dissolved in DMSO as a 10 mM stock and used to prepare compound source plates. For the 96 well assay, serial dilution (1:3, 6-point dose-response curves from 2700 nM to 10 nM) and compound transfer was performed using the ECHO 550 (Labcyte, Sunnyvale, Calif.) into 96-well clear bottom assay plates (Greiner Bio-One) with appropriate DMSO backfill for a final DMSO concentration of 0.03%. hMSCs were plated at 20,000 cells/well in 250 μL/well Incomplete Chondrogenic Induction Medium (Lonza; DMEM, dexamethasone, ascorbate, insulin-transferrin-selenium [ITS supplement], gentamycin-amphotericin [GA-1000], sodium pyruvate, proline and L-glutamine). TGF-β3 (10 ng/mL) was used as a positive control for differentiation while negative control wells were treated with 75 nL DMSO for normalization and calculating EC50 values. For the 384 well assay, serial dilution (1:3, 8-point dose-response curves from 5000 nM to 2.2 nM) and compound transfer was performed using the ECHO 550 (Labcyte, Sunnyvale, Calif.) into 384-well clear bottom assay plates (Greiner Bio-One) with appropriate DMSO backfill for a final DMSO concentration of 0.03%. hMSCs were plated at 8,000 cells/well in 80 μL/well Incomplete Chondrogenic Induction Medium (Lonza; DMEM, dexamethasone, ascorbate, insulin-transferrin-selenium [ITS supplement], gentamycin-amphotericin [GA-1000], sodium pyruvate, proline and L-glutamine). TGF-β3 (10 ng/mL) was used as a positive control for differentiation while negative control wells were treated with 25 nL DMSO for normalization and calculating EC50 values. Cells were incubated at 37° C. and 5% CO2 for 6 days. To image chondrogenic nodules, the cells were fixed using 4% formaldehyde (Electron Microscopy Sciences), and stained with 2 μg/mL Rhodamine B (Sigma-Aldrich) and 20 μM Nile Red (Sigma-Aldrich) [Johnson K., et. al, A Stem Cell-Based Approach to Cartilage Repair, Science, (2012), 336(6082), 717-721]. The nodules imaged (25 images per well for 96 well plates and 9 images per well for 384 well plates at 10× magnification) by excitation at 531 nm and emission at 625 nm and quantified using the CellInsight CX5 (Thermo Scientific). Area of nodules in each well was normalized to the average of 3 DMSO treated wells on the same plate using Excel (Microsoft Inc.). The normalized averages (fold change over DMSO) of 2 or 3 replicate wells for each compound concentration were calculated. Due to solubility limitations of some of the compounds, curve fitting was incomplete leading to inaccurate EC50 determinations.
Using TGF-β3 as a positive control, the concentration of representative compounds required to induce 50% levels of chondrogenesis is reported. In addition, the maximum activity of each compound and the respective dose that each compound reached maximum chondrogenesis activity is reported.

As for `CCNCc1cncc(-c2ccc3[nH]nc(-c4nc5c(-c6ccccn6)nccc5[nH]4)c3n2)c1` [Compound 146, N-((5-(3-(4-(Pyridin-2-yl)-1H-imidazo[4,5-c]pyridin-2-yl)-1H-pyrazolo[4,3-b]pyridin-5-yl)pyridin-3-yl)methyl)ethanamine], in experiment [1], the EC50 was above 10000 nM and the inhibition (as a rule, the share of the control response that was lost under treatment) at 10 µM was determined as 35.5%. Besides, the EC50 in the experiment with SW480 colon cancer cells was 4760 nM. Also, the Emax in experiment [2] is 28%.
With `CCCCC(=O)Nc1cncc(-c2ccc3[nH]nc(-c4nc5c(-c6ccccn6)nccc5[nH]4)c3n2)c1` [Compound 159, N-(5-(3-(4-(Pyridin-2-yl)-1H-imidazo[4,5-c]pyridin-2-yl)-1H-pyrazolo[4,3-b]pyridin-5-yl)pyridin-3-yl)pentanamide], in experiment [1], the EC50 was above 10000 nM and the inhibition at 10 µM turned out to be 1.2%. Further, in the experiment with SW480 colon cancer cells, the inhibition at 10 µM came to 5.7% and the EC50 is above 10000 nM. In experiment [2], the Emax is 113% and the EC50 came to 10 nM.
Take `CCC(=O)Nc1cncc(-c2ccc3[nH]nc(-c4nc5c(N6CCCCC6)nccc5[nH]4)c3n2)c1` [Compound 169, N-(5-(3-(4-(Piperidin-1-yl)-1H-imidazo[4,5-c]pyridin-2-yl)-1H-pyrazolo [4,3-b]pyridin-5-yl)pyridin-3-yl)propionamide]: the EC50 in experiment [1] is 4200 nM; in the experiment on SW480 colon cancer cells, 3800 nM; in experiment [2], 30 nM. The Emax in experiment [2] worked out at 69%.
On to `CN(C)c1cncc(-c2ccc3[nH]nc(-c4nc5c(N6CCCCC6)nccc5[nH]4)c3n2)c1` [Compound 175, N,N-Dimethyl-5-(3-(4-(piperidin-1-yl)-1H-imidazo[4,5-c]pyridin-2-yl)-1H-pyrazolo [4,3-b]pyridin-5-yl)pyridin-3-amine], for which the results for the EC50 (in experiment [1]; with SW480 colon cancer cells) were 3890 nM and 1990 nM, respectively. For the same compound, the Emax in experiment [2] was 48%.
As to `CN(C)Cc1cncc(-c2ccc3[nH]nc(-c4nc5c(N6CCCCC6)nccc5[nH]4)c3n2)c1` [Compound 181, N,N-Dimethyl-1-(5-(3-(4-(piperidin-1-yl)-1H-imidazo[4,5-c]pyridin-2-yl)-1H-pyrazolo [4,3-b]pyridin-5-yl)pyridin-3-yl)methanamine], the results for the EC50 (in experiment [1]; with SW480 colon cancer cells) were above 10000 nM and 4680 nM, respectively. The inhibition at 10 µM in experiment [1] was found to be 8.4%. Moreover, the Emax in experiment [2] stood at 43%.
Take `Cc1cn(-c2nccc3[nH]c(-c4n[nH]c5ccc(-c6cncc(NC(=O)CC(C)C)c6)nc45)nc23)cn1` [Compound 198]: the EC50 in experiment [1] was found to be 3980 nM; in the experiment with SW480 colon cancer cells it was 8480 nM; in experiment [2], 30 nM. For the same compound, the Emax in experiment [2] is 69%.
As to `Cc1cn(-c2nccc3[nH]c(-c4n[nH]c5ccc(-c6cncc(NC(=O)C(C)(C)C)c6)nc45)nc23)cn1` [Compound 204, N-(5-(3-(4-(4-Methyl-1H-imidazol-1-yl)-1H-imidazo[4,5-c]pyridin-2-yl)-1H-pyrazolo[4,3-b]pyridin-5-yl)pyridin-3-yl)pivalamide], the EC50 in experiment [1] is above 10000 nM; in the experiment with SW480 colon cancer cells it was above 10000 nM; in experiment [2], 30 nM. Besides, the results for the inhibition at 10 µM (in experiment [1]; in the experiment with SW480 colon cancer cells) were 21% and 0%, respectively. For the same compound, the Emax in experiment [2] is 70%.
For the compound `Cc1cn(-c2nccc3[nH]c(-c4n[nH]c5ccc(-c6cncc(CN7CCCC7)c6)nc45)nc23)cn1` [Compound 210, 3-(4-(4-Methyl-1H-imidazol-1-yl)-1H-imidazo[4,5-c]pyridin-2-yl)-5-(5-(pyrrolidin-1-ylmethyl)pyridin-3-yl)-1H-pyrazolo [4,3-b]pyridine], in experiment [1], the EC50 was above 10000 nM and the inhibition at 10 µM is 5.5%. In the experiment on SW480 colon cancer cells, the inhibition at 10 µM is 7.2% and the EC50 was above 10000 nM. The Emax in experiment [2] came to 50%.
With `CN1CCN(c2nccc3[nH]c(-c4n[nH]c5ccc(-c6cncc(N)c6)nc45)nc23)CC1` [Compound 227, 5-(3-(4-(4-Methylpiperazin-1-yl)-1H-imidazo[4,5-c]pyridin-2-yl)-1H-pyrazolo[4,3-b]pyridin-5-yl)pyridin-3-amine], in experiment [1], the EC50 is above 10000 nM and the inhibition at 10 µM came to 15.3%. Also, in the experiment with SW480 colon cancer cells, the inhibition at 10 µM turned out to be 0% and the EC50 is above 10000 nM. In experiment [2], the Emax amounted to 135% and the EC50 came out at 100 nM.
Consider `CC(C)C(=O)Nc1cncc(-c2ccc3[nH]nc(-c4nc5c(N6CCN(C)CC6)nccc5[nH]4)c3n2)c1` [Compound 233, N-(5-(3-(4-(4-Methylpiperazin-1-yl)-1H-imidazo[4,5-c]pyridin-2-yl)-1H-pyrazolo[4,3-b]pyridin-5-yl)pyridin-3-yl)isobutyramide], for which, in experiment [1], the EC50 was above 10000 nM and the inhibition at 10 µM is 6.4%. In the experiment with SW480 colon cancer cells, the inhibition at 10 µM stood at 1.6% and the EC50 was above 10000 nM. In experiment [2], the Emax was 64% and the EC50 is 900 nM.
`c1cncc(-c2ccc3[nH]nc(-c4nc5cnccc5[nH]4)c3n2)c1` [Compound 256, 3-(1H-Imidazo[4,5-c]pyridin-2-yl)-5-(pyridin-3-yl)-1H-pyrazolo[4,3-b]pyridine]: in experiment [1], the EC50 was above 10000 nM and the inhibition at 10 µM is 21.9%. For the same compound, in the experiment with SW480 colon cancer cells, the inhibition at 10 µM is 1.8% and the EC50 is above 10000 nM. For the same compound, in experiment [2], the Emax turned out to be 55% and the EC50 was found to be 30 nM.
As to `CC(C)(C)CC(=O)Nc1cncc(-c2ccc3[nH]nc(-c4nc5cnccc5[nH]4)c3n2)c1` [Compound 268, N-(5-(3-(1H-Imidazo[4,5-c]pyridin-2-yl)-1H-pyrazolo[4,3-b]pyridin-5-yl)pyridin-3-yl)-3,3-dimethylbutanamide], in experiment [1], the EC50 is above 10000 nM and the inhibition at 10 µM came to 9.5%. In the experiment with SW480 colon cancer cells, the inhibition at 10 µM came out at 0% and the EC50 is above 10000 nM. For the same compound, in experiment [2], the Emax stood at 54% and the EC50 was 10 nM.
Consider `Cc1ccncc1-c1ccc2[nH]nc(-c3nc4c(-c5ccsc5)nccc4[nH]3)c2n1` [Compound 285, 5-(4-Methylpyridin-3-yl)-3-(4-(thiophen-3-yl)-1H-imidazo[4,5-c]pyridin-2-yl)-1H-pyrazolo[4,3-b]pyridine], for which the EC50 in experiment [1] came to 206 nM; in the experiment with SW480 colon cancer cells, 638 nM. Also, the Emax in experiment [2] was 47%.
For the compound `CCCC(=O)Nc1cncc(-c2ccc3[nH]nc(-c4nc5c(-c6ccsc6)nccc5[nH]4)c3n2)c1` [Compound 297, N-(5-(3-(4-(Thiophen-3-yl)-1H-imidazo[4,5-c]pyridin-2-yl)-1H-pyrazolo [4,3-b]pyridin-5-yl)pyridin-3-yl)butyramide], the EC50 in experiment [1] is 2090 nM; with SW480 colon cancer cells it was 1100 nM; in experiment [2], 7 nM. Moreover, the Emax in experiment [2] turned out to be 358%.
On the same counts, the results for `FC1(F)CCN(Cc2cncc(-c3ccc4[nH]nc(-c5nc6c(-c7ccsc7)nccc6[nH]5)c4n3)c2)C1` [Compound 306, 5-(5-((3,3-difluoropyrrolidin-1-yl)methyl)pyridin-3-yl)-3-(4-(thiophen-3-yl)-1H-imidazo[4,5-c]pyridin-2-yl)-1H-pyrazolo[4,3-b]pyridine] are 1010 nM, 1120 nM, 100 nM and 53%.
